Data on one molecule can be found in ChEMBL document CHEMBL4138191, “Organic arsenicals target thioredoxin reductase followed by oxidative stress and mitochondrial dysfunction resulting in apoptosis” (Eur J Med Chem, 2018).

The subject of test [1] is HL-60. The test is described as follows: Induction of mitochondrial membrane potential loss in human HL60 cells after 24 hrs by JC-1 staining-based flow cytometry (reference value: 28.6%). The test is classed as functional.
Test [2] relates to HL-60. The test is described as follows: Induction of mitochondrial membrane potential loss in human HL60 cells after 24 hrs by JC-1 staining-based flow cytometry (reference value: 24.3%). The test is classed as functional. (Flow cytometry measures light scatter and fluorescence of single cells or particles in a stream.)

For the molecule `N#CC(C#N)=NNc1cccc(Cl)c1` [CARBONYL CYANIDE M-CHLOROPHENYLHYDRAZONE], the Activity in the test on HL-60 [1] came to 62.4%; in the test on HL-60 [2], 85.8%.
